Where a name gives a salt, the structure may show the parent alone.

Tested on in one data set: not given
Assay: not given
Conditions: not given
Regarding `O=C(NCCN1CCN(Cc2ccccc2)CC1)[C@@H]1C[C@H]1c1ccccc1` (relative stereo) (as salt: HCl) [Compound 7, Trans-N-[2-(4-benzyl-1-piperazinyl)ethyl]-2-phenylcyclopropanecarboxamide], the melting point is 195 °C. `CC(C)N1CCN(C2CCN(C(=O)C(c3ccccc3)C3CCCC3)CC2)CC1` (centres unmarked) (as salt: Na) [Compound 38, 1-{1-[cyclopentyl(phenyl)acetyl]-4-piperidinyl}-4-isopropylpiperazine] had a melting point of 109.6 °C. `O=C(NCCCN1CCN(Cc2c(F)cccc2Cl)CC1)C(c1ccccc1)C1CCCC1` (centres unmarked) (as salt: HCl) [Compound 34, N-{3-[4-(2-chloro-6-fluorobenzyl)-1-piperazinyl]propyl}-2-cyclopentyl-2-phenylacetamide]: the melting point came to 148 °C. `CCN(CC)CCNC(=O)C(c1ccccc1)C1CCCC1` (single isomer, unassigned; (-)) (as salt: HCl) [Compound 51, (−)2-cyclopentyl-N-[2-(diethylamino)ethyl]-2-phenylacetamide] registered a melting point of 146 °C. `O=C(C(c1ccc(Cl)c(Cl)c1)C1CCCC1)N1CCC(N2CCCCC2)CC1` (centres unmarked) (as salt: HCl) [Compound 25, 1′-[cyclopentyl(3,4-dichlorophenyl)acetyl]-1,4′-bipiperidine] gave a melting point of 230 °C. `O=C(NCCCN1CCN(Cc2c(F)cccc2Cl)CC1)[C@@H]1C[C@H]1c1ccccc1` (relative stereo) (as salt: HCl) [Compound 5, Trans-N-{3-[4-(2-chloro-6-fluorobenzyl)-1-piperazinyl]propyl}-2-phenylcyclopropanecarboxamide] yielded a melting point of 145 °C. The same measure, in the same setting: the same measure for `NCCNC(=O)C(c1ccccc1)C1CCCC1` (centres unmarked) (as salt: HCl) [Compound 22, N-(2-aminoethyl)-2-cyclopentyl-2-phenylacetamide]: 290 °C.

Turning to `CCN(CC)CCNC(=O)C(c1ccccc1)C1CCCC1` (centres unmarked) (as salt: HCl) [Compound 15, 2-cyclopentyl-N-[2-(diethylamino)ethyl]-2-phenylacetamide], the melting point was found to be 129 °C. Same read-out and setting: the same measure for `CCN(CC)C1CCN(C(=O)C(c2ccccc2)C2CCCC2)CC1` (centres unmarked) (as salt: HCl) [Compound 37, N-{1-[cyclopentyl(phenyl)acetyl]-4-piperidinyl}-N,N-diethylamine]: 79 °C. As for `O=C(NCCN1CCN(C(=O)c2c(F)cccc2Cl)CC1)[C@@H]1C[C@H]1c1ccccc1` (relative stereo) (as salt: HCl) [Compound 9, Trans-N-{2-[4-(2-chloro-6-fluorobenzoyl)-1-piperazinyl]ethyl}-2-phenylcyclopropanecarboxamide], the melting point stood at 122 °C. `O=C(NCCN1CCN(Cc2ccc(Cl)c(Cl)c2)CC1)[C@@H]1C[C@H]1c1ccccc1` (relative stereo) (as salt: HCl) [Compound 10, Trans-N-{2-[4-(3,4-dichlorobenzyl)-1-piperazinyl]ethyl}-2-phenylcyclopropanecarboxamide] showed a melting point of 145 °C. With `O=C(C(c1ccccc1)C1CCCC1)N1CCC(N2CCOCC2)CC1` (centres unmarked) (as salt: Na) [Compound 36, 4-{1-[cyclopentyl(phenyl)acetyl]-4-piperidinyl}morpholine], the melting point was determined as 111.8 °C. The same measure, in the same setting: the same measure for `O=C(C(c1ccc(Cl)cc1)C1CCCC1)N1CCC(N2CCCCC2)CC1` (centres unmarked) (as salt: HCl) [Compound 27, 1′-[(4-chlorophenyl)(cyclopentyl)acetyl]-1,4′-bipiperidine]: 105 °C.

For `O=C(NCCCN1CCOCC1)C(c1ccccc1)C1CCCC1` (centres unmarked) (as salt: HCl) [Compound 32, 2-cyclopentyl-N-[3-(4-morpholinyl)propyl]-2-phenylacetamide], the melting point was determined as 145 °C.

Turning to `O=C(C(c1ccccc1)C1CCCC1)N1CCC(N2CCCCC2)CC1` (centres unmarked) (as salt: HCl) [Compound 24, 1′-[cyclopentyl(phenyl)acetyl]-1,4′-bipiperidine], the melting point was determined as 112 °C. As for `O=C(C(c1ccccc1)C1CCCC1)N1CCC(N2CCC(O)CC2)CC1` (centres unmarked) (as salt: HCl) [Compound 41, 1′-[cyclopentyl(phenyl)acetyl]-1,4′-bipiperidin-4-ol], the melting point was 90 °C. With `CCN(CC)CCNC(=O)C(c1ccccc1)C1CCCC1` (single isomer, unassigned; (+)) (as salt: HCl) [Compound 50, (+)2-cyclopentyl-N-[2-(diethylamino)ethyl]-2-phenylacetamide], the melting point is 144 °C. `CCNCCNC(=O)C(c1ccccc1)C1CCCC1` (centres unmarked) (as salt: HCl) [Compound 18, 2-cyclopentyl-N-[2-(ethylamino)ethyl]-2-phenylacetamide] had a melting point of 131 °C.

`CCOC(=O)C1CCN(C2CCN(C(=O)C(c3ccccc3)C3CCCC3)CC2)CC1` (centres unmarked) (as salt: HCl) [Compound 40, ethyl 1′-[cyclopentyl(phenyl)acetyl]-1,4′-bipiperidine-4-carboxylate] returned a melting point of 88 °C. On the same count and under the same terms, the same measure for `CC1CCCCN1CCCNC(=O)C(c1ccccc1)C1CCCC1` (centres unmarked) (as salt: HCl) [Compound 14, 2-cyclopentyl-N-[3-(2-methyl-1-piperidinyl)propyl]-2-phenylacetamide]: 69 °C; for `CN(C)[C@H]1CCN(C(=O)C(c2ccccc2)C2CCCC2)C1` (stereo partly drawn) (as salt: Na) [Compound 42, (3S)-1-[cyclopentyl(phenyl)acetyl]-N,N-dimethyl-3-pyrrolidinamine]: 68 °C. In turn, `CCN(CC)CCNC(=O)C(c1ccc(F)cc1)C1CCCC1` (centres unmarked) (as salt: HCl) [Compound 21, 2-cyclopentyl-N-[2-(diethylamino)ethyl]-2-(4-fluorophenyl)acetamide] gave a melting point of 45 °C.

The next data set concerns MK801-induced short term/working memory deficits. Description: spontaneous alternation task (Y-shaped maze), short term/working memory. It counts as in vivo. The note with it: male mice, 8 minutes in maze; normal mice 65-70 %. The text has this:
The effect of claimed compounds has been evaluated in an animal model of short term/working memory, namely the spontaneous alternation task. The test system consisted of a symmetrical Y-shaped maze. […] Claimed compounds were able to prevent this deficit after systemic administration.
With `C[C@]12N[C@H](Cc3ccccc31)c1ccccc12` [MK801], the “% spontaneous alternation” value is on record as “decreased percentage of spontaneous alternation”.

These data come from patent publication US20080153917A1, “Sigma Receptor Ligands” (UCB PHARMA, S.A., priority 2004, published 2008).
